Data published in the supplement of paper PMC13380429.

Legend:
[1] = system: A549-ACE2 infected with SARS-CoV-2; assay: SARS-CoV-2 infection rate relative to DMSO; higher = more infection; conditions: 24 h
[2] = system: A549-ACE2 infected with SARS-CoV-2; assay: morphology score (similarity to uninfected cells); higher = more like uninfected cells; conditions: 24 h
[3] = system: Calu-3; assay: cell viability relative to DMSO; higher = less toxic; conditions: 72 h
[4] = system: Vero E6; assay: as above; conditions: 72 h
[5] = system: HepG2; assay: as above; conditions: 72 h
[6] = system: U2OS; assay: as above; conditions: 72 h
[7] = system: Calu-3; assay: drug sensitivity score (DSS) for viability; higher = more toxic; extreme values may be limits of the assay; conditions: 72 h
[8] = system: Vero E6; assay: as above; conditions: 72 h
[9] = system: HepG2; assay: as above; conditions: 72 h
[10] = system: U2OS; assay: as above; conditions: 72 h
[11] = system: Calu-3; assay: relative viability EC50 (midpoint between 100% and the lowest measured viability); higher = less toxic; conditions: 72 h
[12] = system: Vero E6; assay: as above; conditions: 72 h
[13] = system: A549-ACE2 infected with SARS-CoV-2; assay: cell count relative to DMSO; higher = less toxic; conditions: 24 h
[14] = system: Caco-2; assay: cell viability relative to DMSO; higher = less toxic; conditions: 72 h
[15] = system: Caco-2; assay: drug sensitivity score (DSS) for viability; higher = more toxic; extreme values may be limits of the assay; conditions: 72 h
[16] = system: Caco-2; assay: relative viability EC50 (midpoint between 100% and the lowest measured viability); higher = less toxic; conditions: 72 h
[17] = system: HepG2; assay: as above; conditions: 72 h
[18] = system: U2OS; assay: as above; conditions: 72 h

COc1ccc(C(=O)/C(Cc2cc(OC)c(OC)c(OC)c2)=C(\C(=O)O)c2ccc3c(c2)OCO3)cc1
Conditions | SARS-CoV-2 infection rate, [1] [%] | cell count, [13] [%] | cell viability, [3] [%] | cell viability, [4] [%] | cell viability, [5] [%] | cell viability, [6] [%] | morphology score, [2]
1 nM | – | – | 91.9 | 97.1 | 102 | 98.9 | –
10 nM | – | – | 87.6 | 101 | 93.9 | 94.9 | –
100 nM | – | – | 101 | 104 | 95.3 | 97.7 | –
0.3 µM | 101 | 98 | – | – | – | – | -0.18
1000 nM | – | – | 101 | 109 | 95.2 | 96.2 | –
3 µM | 95 | 104 | – | – | – | – | 0.12
10 µM | 42 | 82 | – | – | – | – | 0.6
10000 nM | – | – | 94.1 | 104 | 65.2 | 57.6 | –
30 µM | 16 | 22 | – | – | – | – | 0.36

Conditions | drug sensitivity score | relative viability EC50 [µM]
[7] | 0 | –
[8] | 0 | –
[9] | 2.4 | –
[10] | 2.8 | –
[11] | – | > 10
[12] | – | > 10

CC(C)C[C@H](NC(=O)[C@H](Cc1ccccc1)NC(=O)c1cnccn1)B(O)O [bortezomib]
Conditions | SARS-CoV-2 infection rate, [1] [%] | cell count, [13] [%] | cell viability, [3] [%] | cell viability, [4] [%] | cell viability, [5] [%] | cell viability, [6] [%] | cell viability, [14] [%] | morphology score, [2]
1 nM | – | – | 103 | 111 | 122 | 104 | 104 | –
10 nM | – | – | 26.4 | 66.4 | 59.1 | 63.9 | 20.1 | –
100 nM | – | – | 4.4 | 3 | 1.8 | -0.1 | 4.1 | –
0.3 µM | 45 | 57 | – | – | – | – | – | 0.26
1000 nM | – | – | 5 | 0.2 | -0.2 | -0.4 | 5.9 | –
3 µM | 21 | 30 | – | – | – | – | – | 0.33
10 µM | 16 | 27 | – | – | – | – | – | 0.29
10000 nM | – | – | 2.4 | 0.1 | -0.3 | -0.4 | 6.2 | –
30 µM | 23 | 24 | – | – | – | – | – | 0.23

Conditions | drug sensitivity score | relative viability EC50 [µM]
[7] | 38.3 | –
[8] | 35.2 | –
[9] | 35.9 | –
[10] | 35.5 | –
[11] | – | 0.0064
[12] | – | 0.0132
[15] | 38.6 | –
[16] | – | 0.0053
[17] | – | 0.0116
[18] | – | 0.0126

NCC(=O)N[C@@H](CCC(N)=O)C(=O)O [gly-gln]
cell viability [%]
Conditions | [3] | [4] | [5] | [6] | [14]
1 nM | 95.9 | 91.8 | 86.6 | 99.2 | 95.5
10 nM | 91.9 | 101 | 100 | 95.4 | 92.6
100 nM | 92.7 | 91.7 | 91.7 | 96.7 | 92.9
1000 nM | 99.2 | 94.2 | 106 | 98.3 | 102
10000 nM | 109 | 107 | 104 | 97.1 | 97.7

Conditions | drug sensitivity score | relative viability EC50 [µM]
[7] | 0 | –
[8] | 0 | –
[9] | 0 | –
[10] | 0 | –
[11] | – | > 10
[12] | – | > 10
[15] | 0 | –
[16] | – | > 10
[17] | – | > 10
[18] | – | > 10

C=C[C@]1(C)CC[C@@H](C(=C)C)C[C@H]1C(=C)C [beta-elemene]
cell viability [%]
Conditions | [3] | [4] | [5] | [6] | [14]
1 nM | 106 | 97.4 | 95.8 | 102 | 95.3
10 nM | 98.4 | 97.2 | 101 | 98 | 98.6
100 nM | 103 | 95.7 | 93.2 | 97 | 97.5
1000 nM | 97.2 | 97.8 | 106 | 96.4 | 92.6
10000 nM | 102 | 96.6 | 103 | 101 | 102

Conditions | drug sensitivity score | relative viability EC50 [µM]
[7] | 0 | –
[8] | 0 | –
[9] | 0 | –
[10] | 0 | –
[11] | – | > 10
[12] | – | > 10
[15] | 0 | –
[16] | – | > 10
[17] | – | > 10
[18] | – | > 10

C[C@H](NC(=O)Cc1cc(F)cc(F)c1)C(=O)N[C@@H]1C(=O)N(C)c2ccccc2-c2ccccc21
cell viability [%]
Conditions | [3] | [4] | [5] | [6] | [14]
1 nM | 106 | 100 | 112 | 94.8 | 89.5
10 nM | 89.5 | 98.7 | 95.7 | 96.8 | 88.6
100 nM | 90.6 | 97.1 | 102 | 90.9 | 93.1
1000 nM | 97 | 102 | 98.2 | 91.5 | 94.3
10000 nM | 94.9 | 109 | 98.6 | 93.1 | 96.7

Conditions | drug sensitivity score | relative viability EC50 [µM]
[7] | 0 | –
[8] | 0 | –
[9] | 0 | –
[10] | 0 | –
[11] | – | > 10
[12] | – | > 10
[15] | 0 | –
[16] | – | > 10
[17] | – | > 10
[18] | – | > 10

Nc1ncnc2c1ncn2[C@@H]1O[C@H](CO)[C@@H](O)[C@H]1O [adenosine]
cell viability [%]
Conditions | [3] | [4] | [5] | [6] | [14]
1 nM | 107 | 102.5 | 98.05 | 102 | 103
10 nM | 88.4 | 102 | 102 | 98 | 100
100 nM | 96.3 | 97.3 | 96.7 | 98.2 | 97.9
1000 nM | 96.1 | 103.5 | 110 | 98.5 | 94.5
10000 nM | 95.2 | 99.95 | 88 | 104 | 95.2

Conditions | drug sensitivity score | relative viability EC50 [µM]
[7] | 0 | –
[8] | 0 | –
[9] | 0.1 | –
[10] | 0 | –
[11] | – | > 10
[12] | – | > 10
[15] | 0 | –
[16] | – | > 10
[17] | – | > 10
[18] | – | > 10

C[C@]12CC[C@H](O)C[C@H]1CC[C@@H]1[C@@H]2C[C@@H](O)[C@]2(C)[C@@H](C3=CC(=O)OC3)CC[C@]12O [digoxigenin]
cell viability [%]
Conditions | [3] | [4] | [5] | [6] | [14]
1 nM | 99.8 | 107 | 100 | 96.9 | 92.9
10 nM | 111 | 108 | 109 | 105 | 106
100 nM | 101 | 77.4 | 89.1 | 92.3 | 114
1000 nM | 91.6 | 1.3 | 39.5 | 58.4 | 80.5
10000 nM | 29 | 1.1 | 12.6 | 5.8 | 44.6

Conditions | drug sensitivity score | relative viability EC50 [µM]
[7] | 5.3 | –
[8] | 21.4 | –
[9] | 12.8 | –
[10] | 10 | –
[11] | – | 2.19
[12] | – | 0.163
[15] | 5.7 | –
[16] | – | 1.28
[17] | – | 0.52
[18] | – | 1.14

Nc1nc2ccc(Cl)cc2c2nc(-c3ccco3)nn12
cell viability [%]
Conditions | [3] | [4] | [5] | [6] | [14]
1 nM | 109 | 96.1 | 91.5 | 102 | 100
10 nM | 92.8 | 97.6 | 104 | 100 | 91.6
100 nM | 96.9 | 94.2 | 87.7 | 103 | 104
1000 nM | 98.5 | 100 | 33.5 | 97.7 | 88.1
10000 nM | 84.9 | 85.9 | 23.2 | 98.3 | 76.7

Conditions | drug sensitivity score | relative viability EC50 [µM]
[7] | 0.4 | –
[8] | 0.2 | –
[9] | 13.8 | –
[10] | 0 | –
[11] | – | > 10
[12] | – | > 10
[15] | 2.2 | –
[16] | – | > 10
[17] | – | 0.297
[18] | – | > 10

NCCCS(=O)(=O)O [tramiprosate]
cell viability [%]
Conditions | [3] | [4] | [5] | [6] | [14]
1 nM | 98.5 | 95.2 | 108 | 94.6 | 86.1
10 nM | 95.1 | 95.8 | 97.4 | 99.2 | 94.8
100 nM | 95 | 100 | 106 | 101 | 97.7
1000 nM | 96.8 | 99.7 | 108 | 103 | 98.1
10000 nM | 98.7 | 106 | 109 | 94.7 | 93

Conditions | drug sensitivity score | relative viability EC50 [µM]
[7] | 0 | –
[8] | 0 | –
[9] | 0 | –
[10] | 0 | –
[11] | – | > 10
[12] | – | > 10
[15] | 0 | –
[16] | – | > 10
[17] | – | > 10
[18] | – | > 10

CC1=CC(=O)c2ccccc2C1=O [menadione]
cell viability [%]
Conditions | [3] | [4] | [5] | [6] | [14]
1 nM | 95.8 | 104 | 102 | 95.4 | 100
10 nM | 104 | 104 | 100 | 101 | 103
100 nM | 112 | 99.9 | 116 | 96.4 | 100
1000 nM | 97.9 | 102 | 106 | 99.7 | 104
10000 nM | 106 | 95.1 | 99 | 93.1 | 94.2

Conditions | drug sensitivity score | relative viability EC50 [µM]
[7] | 0 | –
[8] | 0 | –
[9] | 0 | –
[10] | 0 | –
[11] | – | > 10
[12] | – | > 10
[15] | 0 | –
[16] | – | > 10
[17] | – | > 10
[18] | – | > 10

CN1CCN(C(=O)O[C@H]2c3nccnc3C(=O)N2c2ccc(Cl)cn2)CC1 [ESZOPICLONE]
cell viability [%]
Conditions | [3] | [4] | [5] | [6] | [14]
1 nM | 109 | 97.3 | 97.2 | 98.3 | 93.8
10 nM | 106 | 101 | 95.2 | 87.6 | 98.3
100 nM | 91.2 | 93.6 | 92.8 | 99.5 | 94.3
1000 nM | 104 | 97.2 | 102 | 98.3 | 98.6
10000 nM | 99.6 | 111 | 101 | 96.6 | 100

Conditions | drug sensitivity score | relative viability EC50 [µM]
[7] | 0 | –
[8] | 0 | –
[9] | 0 | –
[10] | 0 | –
[11] | – | > 10
[12] | – | > 10
[15] | 0 | –
[16] | – | > 10
[17] | – | > 10
[18] | – | > 10
